Assay results: ChEMBL document CHEMBL4699425, “Active learning effectively identifies a minimal set of maximally informative and asymptotically performant cytotoxic structure-activity patterns in NCI-60 cell lines” (2020)
Active and inactive are the calls of the source. No cut-off for these calls is given here.

System: SK-MEL-2
Test: Growth inhibition of human SK-MEL-2 cells
Type: functional

SMILES	GI50 (read-out: GI50) [µM]	GI50 (read-out: pGI50 (converted)) [µM]	growth inhibition (GI)
O=C1c2cccnc2-c2nc(-c3ccccn3)cc3c2c1nc1ccccc13	0.874	0.875	–
COc1cc(C2c3cc4c(cc3OC(N3CCCC3)C2C)OCO4)cc(OC)c1OC (stereo unspecified)	–	–	Active
CC1C(c2ccccc2O)c2cc3c(cc2OC1N1CCCC1)OCO3 (stereo unspecified)	–	–	inactive
Cc1ccc(-c2cc3c4c(nc5ccccc53)C(=O)c3cccnc3-c4n2)cc1	15	15	–
